Patent US7144865B2, “Compositions and methods for treating obesity” (The United States of America as represented by the …, priority 2003, dated 2006)
Like-named read-outs stand apart in the source and are kept apart here.

Tests used:
[1] = Arachidonic acid plus zinc and L-histidine in drinking water for 14 days in ob/ob and lean mice (Example 2, Table 3); type: in vivo; conditions: for Body Weight Gain / Food Intake / Water Intake: 14 days, mean ± SEM
Description: Eight week old male C57BL/6J-obese ob/ob mice and their lean wild-type littermates were randomly divided into five groups of five mice and treated with the following levels of AA in drinking water: (i) 0 mg AA/l; (ii) 10 mg AA/l; (iii) 20 mg AA/l; (iv) 50 mg AA/l; or (v) 100 mg AA/l. 10 mg zinc and 0.5 mg L-histidine/l were also included at each level of AA described above. The treatment solutions were replaced with freshly prepared solutions every other day during the 2-week treatment period. Body weight, and food and water intake were measured every other day in the morning, beginning the first day of treatment.

[2] = Water intake in G-K rats treated with AA plus zinc (Example 3, FIG. 10); type: in vivo; conditions: One-month old G-K rats, 2 weeks
Text: (FIG. 10). Thus, water intake was reduced in rats with all treatments containing zinc relative to DW-treated rats, but not with the AA-only treatment.

[3] = system: intestinal zinc absorption; conditions: normal (non-diabetic) rats, oral, cited from earlier work
[4] = system: intestinal zinc transport; conditions: cited from earlier work
[5] = cited from earlier work
[6] = cited from earlier work; remark: listed apart in the source
[7] = Plasma insulin levels in G-K rats treated with zinc and CHP (Example 1, Table 2); type: in vivo; conditions: for Plasma Insulin Levels (mean ± SEM): 6-month old G-K rats
Text: However, higher doses of CHP decreased plasma insulin levels. (Table 2)

[8] = Body weight and growth rate of G-K rats treated with zinc or zinc plus CHP (FIGS. 1, 2, 11-13); type: in vivo; conditions: one month old (young) G-K rats; FIG. 2
Text: I believe that CHP is effective in maintaining body weight control even after the cessation of the treatment.

[9] = Food and water intake in G-K rats treated with zinc or zinc plus CHP (FIGS. 6, 8); type: in vivo
[10] = Body weight and water intake in S-D rats treated with zinc or zinc plus CHP (FIGS. 4, 5, 9); conditions: 8-month old S-D rats; FIG. 9
[11] = CHP plus zinc and L-histidine in drinking water for 21 days in ob/ob and lean mice (Example 5, Table 1); type: in vivo; conditions: for Body Weight Gain / Food Intake / Water Intake: 21 days, mean ± SEM
Description: Ob/ob and lean mice were randomly divided into four groups and treated with drinking water containing either 0, 0.5, 1.0, or 1.5 mg CHP/L plus 10 mg zinc and 0.5 mg L-histidine/L. Drinking water containing test substances was prepared every other day with freshly prepared solutions. During the testing non-fasting blood glucose concentrations, food and water intake, and body weight were measured every other day in the morning. Non-fasting plasma insulin concentrations and three-hour average blood glucose concentrations were determined at the end of the three-week treatment period.

[12] = cited from earlier work; remark: listed apart in the source
[13] = humans; CHP intake; cited from earlier work
[14] = Lean mice, 10 mg/L AA plus 10 mg/L zinc and 0.5 mg/L L-histidine
[15] = Lean mice, 20 mg/L AA plus 10 mg/L zinc and 0.5 mg/L L-histidine
[16] = Lean mice, 50 mg/L AA plus 10 mg/L zinc and 0.5 mg/L L-histidine
[17] = Lean mice, 100 mg/L AA plus 10 mg/L zinc and 0.5 mg/L L-histidine
[18] = Ob/ob mice, 10 mg/L AA plus 10 mg/L zinc and 0.5 mg/L L-histidine
[19] = Ob/ob mice, 20 mg/L AA plus 10 mg/L zinc and 0.5 mg/L L-histidine, p < 0.05 vs 0 mg/l group
[20] = Ob/ob mice, 50 mg/L AA plus 10 mg/L zinc and 0.5 mg/L L-histidine
[21] = Ob/ob mice, 100 mg/L AA plus 10 mg/L zinc and 0.5 mg/L L-histidine
[22] = Lean mice, 0.5 mg/L CHP plus 10 mg/L zinc and 0.5 mg/L L-histidine
[23] = Lean mice, 1.0 mg/L CHP plus 10 mg/L zinc and 0.5 mg/L L-histidine
[24] = Lean mice, 1.5 mg/L CHP plus 10 mg/L zinc and 0.5 mg/L L-histidine
[25] = Ob/ob mice, 0.5 mg/L CHP plus 10 mg/L zinc and 0.5 mg/L L-histidine
[26] = Ob/ob mice, 1.0 mg/L CHP plus 10 mg/L zinc and 0.5 mg/L L-histidine
[27] = Ob/ob mice, 1.5 mg/L CHP plus 10 mg/L zinc and 0.5 mg/L L-histidine

CCCCC/C=C\C/C=C\C/C=C\C/C=C\CCCC(=O)O [AA, arachidonic acid]
Body Weight Gain [1, 14]: 1.0 ± 0.2 g | Food Intake [1, 14]: 143.9 ± 13.2 g/kg BW/day | Water Intake [1, 14]: 207.3 ± 23.6 ml/kg BW/day | Body Weight Gain [1, 15]: 0.6 ± 0.2 g | Food Intake [1, 15]: 129.9 ± 11.1 g/kg BW/day | Water Intake [1, 15]: 211.6 ± 23.6 ml/kg BW/day | Body Weight Gain [1, 16]: 1.0 ± 0.3 g | Food Intake [1, 16]: 133.1 ± 9.5 g/kg BW/day | Water Intake [1, 16]: 211.9 ± 21.5 ml/kg BW/day | Body Weight Gain [1, 17]: 0.6 ± 0.1 g | Food Intake [1, 17]: 130.0 ± 13.2 g/kg BW/day | Water Intake [1, 17]: 216.1 ± 21.0 ml/kg BW/day | Body Weight Gain [1, 18]: 2.3 ± 0.7 g | Food Intake [1, 18]: 126.5 ± 13.2 g/kg BW/day | Water Intake [1, 18]: 215.9 ± 15.2 ml/kg BW/day | Body Weight Gain ([1]; Ob/ob mice, 20 mg/L AA plus 10 mg/L zinc and 0.5 mg/L L-histidine): 2.6 ± 0.4 g | Food Intake [1, 19]: 107.5 ± 9.0 g/kg BW/day | Water Intake [1, 19]: 182.9 ± 12.4 ml/kg BW/day | Body Weight Gain [1, 20]: 2.4 ± 1.7 g | Food Intake [1, 20]: 114.4 ± 9.9 g/kg BW/day | Water Intake ([1]; Ob/ob mice, 50 mg/L AA plus 10 mg/L zinc and 0.5 mg/L L-histidine, p < 0.05 vs 0 mg/l group): 188.7 ± 11.5 ml/kg BW/day | Body Weight Gain [1, 21]: 2.9 ± 0.5 g | Food Intake [1, 21]: 116.0 ± 12.0 g/kg BW/day | Water Intake ([1]; Ob/ob mice, 100 mg/L AA plus 10 mg/L zinc and 0.5 mg/L L-histidine, p < 0.05 vs 0 mg/l group): 198.9 ± 15.3 ml/kg BW/day | water and food intake ([1]; lean mice): no treatment effect | Food intake versus those treated with only zinc and L-histidine ([1]; obese mice, 20 mg/L AA plus zinc, p<0.05): significantly lower | Water intake versus those given only zinc and L-histidine ([1]; obese mice, 20, 50 or 100 mg AA/l, p<0.05): significantly lower | body weight ([1]; obese or lean mice): no effect | water intake reduced relative to DW-treated rats ([2]; AA-only treatment (20 mg/L AA)): not | intestinal zinc absorption ([3]; high doses of AA, above 1.0 mg/200 g body weight): increased | intestinal zinc absorption ([3]; low doses of AA (0.5 mg/200 g)): decreased | zinc uptake (rate) of intestinal segments ([4]; jejunal / isolated intestinal segments of diabetic rats, AA added to the segment-bathing medium): increased significantly | zinc transport rate into the circulatory system ([4]; jejunal segments of diabetic rats): did not enhance | Water Intake ([5]; diabetic G-K rats): significantly reduced | optimal concentration of AA required to provide improved blood glucose levels ([5]; diabetic G-K rats): 4.0 mg/day/kg | water consumption rates ([5]; diabetic rats, higher doses of AA): significantly decreased | optimal concentration of AA required to provide improved blood glucose levels ([5]; streptozotocin induced diabetic rats): 11 mg/day/kg | Water Intake ([5]; streptozotocin-induced diabetic rats): significantly reduced | Water Intake ([6]; genetically obese mice): significantly reduced | optimal concentration of AA required to provide improved blood glucose levels ([6]; obese mice): 2.0 mg/day/kg

[Zn] [zinc]
Plasma Insulin Levels (mean ± SEM) ([7]; zinc only 10 mg/L in drinking water): 0.637 ± 0.048 ng/mL | Water Intake ([2]; 10 mg/L zinc only): significantly decreased | growth rates [8]: not affected | Water Intake ([9]; 1.0-month-old rats): not affected | Water intake compared to distilled water (DW) treated rats ([9]; 10 month old G-K rats, P<0.01, FIG. 8): significantly lower | water intakes [10]: significantly decreased

O=C1N[C@@H](Cc2cnc[nH]2)C(=O)N2CCC[C@@H]12 [CHP, cyclo-Hispro]
Body Weight Gain [11, 22]: 1.5 ± 0.4 g | Food Intake [11, 22]: 171.7 ± 12.5 g/kg BW/day | Water Intake [11, 22]: 267.1 ± 22.7 ml/kg BW/day | Body Weight Gain [11, 23]: 1.3 ± 0.5 g | Food Intake [11, 23]: 159.6 ± 7.3 g/kg BW/day | Water Intake [11, 23]: 258.2 ± 21.8 ml/kg BW/day | Body Weight Gain [11, 24]: 2.2 ± 0.9 g | Food Intake [11, 24]: 180.6 ± 19.5 g/kg BW/day | Water Intake [11, 24]: 302.5 ± 27.2 ml/kg BW/day | Body Weight Gain [11, 25]: 4.3 ± 0.8 g | Food Intake [11, 25]: 128.3 ± 7.8 g/kg BW/day | Water Intake [11, 25]: 198.2 ± 13.5 ml/kg BW/day | Food Intake [11, 26]: 110.6 ± 10.3 g/kg BW/day | Water Intake [11, 26]: 160.4 ± 9.7 ml/kg BW/day | Body Weight Gain ([11]; Ob/ob mice, 1.0 mg/L CHP plus 10 mg/L zinc and 0.5 mg/L L-histidine, p < 0.05 vs 0 or 0.5 mg CHP/L): 2.3 ± 0.8 g | Body Weight Gain [11, 27]: 3.8 ± 0.9 g | Food Intake [11, 27]: 120.7 ± 10.4 g/kg BW/day | Water Intake [11, 27]: 192.5 ± 16.8 ml/kg BW/day | Water and food intake relative to the other treatment groups ([11]; ob/ob mice, 1.0 mg CHP plus zinc and L-histidine, difference not significant): lowest | Body weight gain relative to those given zinc and L-histidine only ([11]; ob/ob mice, 1.0 mg CHP/L plus zinc and L-histidine, P<0.05): significantly reduced | Plasma Insulin Levels (mean ± SEM) ([7]; CHP only 1.0 mg/L in drinking water): 0.907 ± 0.090 ng/mL | plasma insulin levels ([7]; hyperinsulinemic diabetic G-K rats, higher / increasing doses of CHP): decreased | Water Intake ([12]; intraventricular administration): significantly reduces | Food Intake ([12]; rats, CHP intake): decreases | Food Intake [13]: decreases
